Source: PMC9691367, “The PROTAC selectively degrading Bcl-xL represents a novel Hedgehog pathway inhibitor with capacity of combating resistance to Smoothened inhibitors while sparing bone growth” (Theranostics, 2022)
Where two headings read alike, the source gives them in different places.

Legend:
[1] = target: Bcl-xL (Homo sapiens, UniProt Q07817); experiment: Co-immunoprecipitation of Bcl-xL ubiquitination in 293T cells; assay type: cell-based; conditions: 293T cells with GST-Bcl-xL and HA-Ub, 1 µM, 4 h
Sequence of Bcl-xL (Q07817 whole entry, species assumed): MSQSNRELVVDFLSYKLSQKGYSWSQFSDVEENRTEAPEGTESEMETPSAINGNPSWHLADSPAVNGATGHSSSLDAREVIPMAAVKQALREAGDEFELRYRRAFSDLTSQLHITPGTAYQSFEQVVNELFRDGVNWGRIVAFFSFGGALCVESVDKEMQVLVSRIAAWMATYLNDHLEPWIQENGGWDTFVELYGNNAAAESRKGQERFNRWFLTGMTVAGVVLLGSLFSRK
Procedure: Cells were lysed in immunoprecipitation lysis buffer (#87787, Thermo Fisher Scientific) supplemented with protease and phosphatase inhibitor cocktail. Cell lysates were incubated with the indicated antibodies at 4 °C overnight, followed by incubation with Protein A/G Plus-Agarose beads (Santa Cruz Biotechnology) at 4 °C for 4 h. Immunoprecipitates were collected by centrifugation and washed three times with washing buffer. The complex was separated from the beads and then boiled for 10 min. The immunoprecipitates and inputs were analyzed by SDS-PAGE and immunoblot using the antibodies as indicated. […]
hydrochloride; DMAP = 4-dimethylaminopyridine; TFA = trifluoroacetic acid; DMF = N,N-dimethylformamide. (D) A representative western blot analysis of SALL4 in NIH-3T3 cells after being treated with SIAIS361034 as indicated for 24 h. (E) A representative western blot analysis of hemagglutinin (HA), Bcl-xL, and GAPDH following GST-Bcl-xL immunoprecipitation of protein extracts from 293T cells. Cells were cotransfected as indicated with GST-Bcl-xL and HA-tagged ubiquitin (HA-Ub) and then were treated with or without SIAIS361034 (1 µM) and MG132 (10 µM) as […]

[2] = system: Gli1 and Ptch1 mRNA; experiment: RT-qPCR of Hh target genes in NIH-3T3 cells exposed to SAG; assay type: cell-based; conditions: 36 h
Procedure: Total RNA was extracted from cells or tissues using the NucleoSpin RNA kit (#740955.50, TaKaRa). RNA reverse transcriptions were performed with PrimeScript RT Reagent Kit with RNase inhibitor (#RR037B, TaKaRa). The quantitative PCR amplifications were performed in triplicate with TB Green Premix Ex Taq (Tli RNase H Plus) (#RR420A, TaKaRa) in an iCycler iQ system (Bio-Rad; Hercules, CA). Relative gene expression for interested genes was calculated using the 2^-ΔΔCt method and normalized to mGUSB expression. Primer sequences for RT-qPCR are as follows: mGli1 forward (5′-[…]-3′), reverse (5′-[…]-3′); mPtch1 forward (5′-[…]-3′), reverse (5′-[…]-3′); mGUSB forward (5′-[…]-3′), reverse (5′-[…]-3′).

[3] = system: Hh pathway (Gli-luciferase) provoked by Smo WT / Smo mutants; experiment: Dual luciferase reporter assay, Hh activity induced by ectopic Smo WT or Smo mutants in light II cells; assay type: cell-based; conditions: for IC50: 36 h
Text: The TCF/LEF luciferase reporter plasmid, NF-κB luciferase reporter plasmid, and TK-Renilla luciferase plasmid were purchased from Promega (Madison, WI, USA). Smo plasmid was purchased from Origene (Rockville, MD, USA). The Smo mutant plasmids were generated from wild type Smo plasmid using QuickChange Site-Directed Mutagenesis kit from Agilent (Santa Clara, CA, USA) and confirmed by sequencing. Information on Smo mutants plasmids is provided in Supplementary data 2. The Gli1 plasmid and Gli2-HA plasmid were obtained from Addgene (Cambridge, MA, USA). Transient transfections were performed by Lipofectamine 2000 reagent from Invitrogen (Grand Island, NY, USA) according to the manufacturer's instructions.
Cells seeded in 96-well plates were treated with various treatments as indicated. The luciferase activity in the cell lysates was measured using Dual-Luciferase Reporter Assay System (Promega, Madison, WI, USA) according to the manufacturer's instructions in a luminometer (Molecular Devices, Sunnyvale, CA). The firefly luciferase values were normalized to Renilla values.

[4] = system: hair growth and Hh pathway activity in skin; experiment: Depilatory mouse model; assay type: in vivo
Procedure: For Depilatory model studies, male C57BL/6J mice (7 to 8 weeks of age) were purchased from Shanghai Lingchang Biotechnology Co. (Shanghai, China). After 2 days of acclimation, only healthy mice were used in the experiment. The back skin of the anesthetized mice was shaved and depilated using the depilatory Nair (Church & Dwight Co., Inc.). After 4 days, the depilated mice were randomized into groups for treatments as indicated. The back skin phenotypes were recorded by taking pictures every 3 days. Skin tissues were harvested 6 h after the last dosage to examining Gli1 mRNA expression as well as Gli1 and Bcl-xL protein levels.

[5] = system: SmoA1 (Smo W539L) medulloblastoma tumor; experiment: SmoA1 medulloblastoma allograft in nude mice; assay type: in vivo, mouse
Text: For in vivo SmoA1 MB allograft studies, SmoA1 spontaneous MB tumors were obtained from ND2:SmoA1 transgenic mice as previously described. Male nude mice (4 to 5 weeks of age) were purchased from Shanghai Lingchang Biotechnology Co. (Shanghai, China). Spontaneous tumors were harvested and subcutaneously allografted into nude mice. When the tumor volumes reached approximately 2000 mm^3, they were harvested and further subcutaneously allografted into nude mice. When the tumor volumes reached about 150 to 200 mm^3, the tumor-bearing mice were randomly assigned into vehicle and treatment groups. Mice were weighed every 3 days. Tumor size was measured once every 3 days using microcaliper. Tumor volume (V) was determined using the following formula: V = (L×W^2) ×0.5, where L is length, and W is width in mm. Tumor tissues were harvested 6 h after the last dosage to examining Gli1 mRNA expression and protein levels. SIAIS361034 for i.p. administration was formulated in 0.5% sodium carboxymethyl cellulose (CMC-Na). All in vivo studies above were approved by and conformed to the policies and regulations of the Animal Care and Use Committee of Fudan University, China.

[6] = system: bone growth of young mice; experiment: Bone growth of young mice (body weight, Micro-CT, H&E, IHC); assay type: in vivo, mouse; conditions: 6-week-old mice treated P12 to P16

CC1(C)CCC(c2ccc(Cl)cc2)=C(CN2CCN(c3ccc(C(=O)NS(=O)(=O)c4ccc(NCCCN5CCN(CCCC#Cc6cccc7c6CN(C6CCC(=O)NC6=O)C7=O)CC5)c(S(=O)(=O)C(F)(F)F)c4)cc3)CC2)C1 (stereo not shown) [SIAIS361034]
Bcl-xL ubiquitination [1]: induce Bcl-xL ubiquitination | mRNA expression of Hh target genes Gli1 and Ptch1 activated by SAG [2]: significantly blocked | IC50 shift between Smo wild-type and mutations ([3]; Gli-luciferase): no significant IC50 shift | Hh activity provoked by wild type Smo and Smo mutants ([3]; Smo WT, D473H, H231R, W281C, W535L, L412F, F460L, GDC-0449 10 μM (Figure S3B-D)): obviously inhibited | IC50 ([3]; ectopic Smo D473H, read-out: IC50 value, Smo D473H): 188 nM | IC50 ([3]; ectopic Smo F460L, read-out: IC50 value, Smo F460L): 147 nM | IC50 ([3]; ectopic Smo H231R, read-out: IC50 value, Smo H231R): 117 nM | IC50 ([3]; ectopic Smo L412F, read-out: IC50 value, Smo L412F): 40.4 nM | IC50 ([3]; ectopic Smo W281C, read-out: IC50 value, Smo W281C): 92.9 nM | IC50 ([3]; ectopic Smo W535L, read-out: IC50 value, Smo W535L): 171 nM | IC50 ([3]; ectopic Smo WT, read-out: IC50 value, Smo WT): 186 nM | hair growth during depilation-induced hair regeneration ([4]; male C57BL/6J mice, administered after 4 days of depilation): significantly retarded hair growth | Hh activity in skin (Gli1 mRNA) ([4]; skin harvested 6 h after the last dosage, RT-qPCR): suppressed the Hh activity | Gli1 and Bcl-xL protein levels in skin tissues ([4]; skin harvested 6 h after the last dosage, western blot): suppressed the expression of Gli1 and Bcl-xL | tumor inhibition ratio / mean tumor growth inhibition (TGI) ratio ([5]; nude mice, SIAIS361034 50 mg/kg, day 15 (termination of the experiment)): 93.56% | growth of SmoA1 tumors ([5]; nude mice, SIAIS361034 50 mg/kg, GDC-0449 50 mg/kg p.o.): remarkably suppressed | expression of Gli1 mRNA in tumor tissues ([5]; tumors harvested 6 h after the last dosage, RT-qPCR): significantly inhibited | Bcl-xL and Gli1 protein in harvested tumors ([5]; western blot at the end of the experiment): inducing Bcl-xL degradation and repressing Gli1 expression | platelets and other indispensable blood cells at the end of the experiment [6]: no side effects
